# Assay results published in PubChem BioAssay (NCI).
# Where “and” joins values, the source holds several entries; their conditions need not be identical. Equal values may be shown once.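 A five-concentration, 48-hour dose response in 96-well plates underlies each endpoint, interpolated linearly between surrounding concentrations. GI50: concentration for 50% inhibition of growth. TGI marks complete inhibition of growth.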
# Tests used:
# Experiment in all cases: growth of human tumour cells (NCI), 48 h
# CCRF-CEM leukemia = tested on: CCRF-CEM leukemia
# RXF 393 renal = tested on: RXF 393 renal
# HS 578T breast = tested on: HS 578T breast
# UO-31 renal = tested on: UO-31 renal
# NCI/ADR-RES ovarian = tested on: NCI/ADR-RES ovarian
# U251 CNS = tested on: U251 CNS
# OVCAR-8 ovarian = tested on: OVCAR-8 ovarian
# SNB-75 CNS = tested on: SNB-75 CNS
# K-562 leukemia = tested on: K-562 leukemia
# OVCAR-4 ovarian = tested on: OVCAR-4 ovarian
SMILES,GI50 (CCRF-CEM leukemia),TGI (CCRF-CEM leukemia),GI50 (RXF 393 renal),TGI (RXF 393 renal),GI50 (HS 578T breast),TGI (HS 578T breast),GI50 (UO-31 renal),TGI (UO-31 renal),GI50 (NCI/ADR-RES ovarian),TGI (NCI/ADR-RES ovarian),GI50 (U251 CNS),TGI (U251 CNS),GI50 (OVCAR-8 ovarian),TGI (OVCAR-8 ovarian),GI50 (SNB-75 CNS),TGI (SNB-75 CNS),GI50 (K-562 leukemia),TGI (K-562 leukemia),GI50 (OVCAR-4 ovarian),TGI (OVCAR-4 ovarian)
NC(N)=N/N=C/c1cccc(Cl)c1Cl,7.26 µM,29.2 µM,4.75 µM,18.3 µM,12200 nM,34.9 µM,10.1 µM,22.7 µM,8.38 µM,24 µM,3.4 µM,13.2 µM,8.93 µM,25.8 µM,11.6 µM,26.9 µM,3.92 µM,13.9 µM,13 µM,26.8 µM
CC1CCC2C(C)C3C(CC4C5CC=C6CC(OC7OC(CO)C(O)C(OC8OC(CO)C(O)C(O)C8O)C7OC7OC(C)C(O)C(O)C7O)CCC6(C)C5CCC43C)N2C1 (stereo not drawn),> 2.5 µg/mL,28.2 µM and > 2.5 µg/mL,> 2.5 µg/mL,22.3 µM and > 2.5 µg/mL,> 2.5 µg/mL,32.6 µM and > 2.5 µg/mL,> 2.5 µg/mL,14.5 µM and > 2.5 µg/mL,> 2.5 µg/mL,34.8 µM and > 2.5 µg/mL,> 2.5 µg/mL,31.1 µM and > 2.5 µg/mL,> 2.5 µg/mL,29.8 µM and > 2.5 µg/mL,> 2.5 µg/mL,24.7 µM and > 2.5 µg/mL,> 2.5 µg/mL,54.4 µM and > 2.5 µg/mL,> 2.5 µg/mL,20.3 µM and > 2.5 µg/mL
COc1cc(C2CC(c3ccc4c(c3)OCO4)=NN2C(C)=O)cc(OC)c1OC (stereo not drawn),0.79 µM,> 27 µM,1.56 µM,> 23.2 µM,1260 nM,> 74.1 µM,3.72 µM,> 86.8 µM,0.405 µM,–,0.899 µM,> 100 µM,5.51 µM,> 100 µM,0.398 µM,3.5 µM,0.353 µM,> 100 µM,5.45 µM,> 100 µM
C=C1C(=O)O[C@H]2[C@H]1[C@H](OC(=O)/C(C)=C\C)C[C@]1(CO1)[C@@H]1[C@H](OC(C)=O)C=C(C)[C@]21O,–,15.6 µM,–,25.6 µM,–,> 100 µM,–,29.4 µM,–,57.4 µM,–,52 µM,–,> 100 µM,–,> 100 µM,–,11.8 µM,–,> 100 µM
CC1CCCN(CC(O)CN2CCCc3ccccc32)C1 (stereo not drawn),–,> 100 µM,–,> 100 µM,–,> 100 µM,–,> 100 µM,–,> 100 µM,–,> 100 µM,–,> 100 µM,–,> 100 µM,–,> 100 µM,–,> 100 µM
CC12CCc3ccccc3C1=Nc1ccccc12 (stereo not drawn),–,47.3 µM,–,> 100 µM,–,46.7 µM,–,> 100 µM,–,64.6 µM,–,> 100 µM,–,> 100 µM,–,> 100 µM,–,> 100 µM,–,> 100 µM
CCn1c(-c2nonc2N)nc2c(C#CC(C)(C)O)nc(O[C@@H](CN)c3ccccc3)cc21,0.0554 µM,5.16 µM,0.0338 µM,0.394 µM,45.3 nM,1.09 µM,3.52 µM,7.37 µM,6.38 µM,25 µM,0.0455 µM,1.15 µM,0.244 µM,2.59 µM,0.122 µM,4.06 µM,0.122 µM,4.26 µM,0.447 µM,4.63 µM
COc1ccc(/C(Cl)=C(\C=O)c2ccc(OC)c(OC)c2)cc1OC,–,> 100 µM,–,99.7 µM,–,> 100 µM,–,> 100 µM,–,> 100 µM,–,> 100 µM,–,> 100 µM,–,41 µM,–,> 100 µM,–,> 100 µM
CCN(Cc1nc2cc(C(F)(F)F)ccc2nc1-c1ccccc1)c1ccc(OC)c(OC)c1,4.74 µM,24.7 µM,0.312 µM,9.09 µM,11400 nM,30 µM,19.8 µM,46.2 µM,29.2 µM,> 100 µM,6.49 µM,19.1 µM,1.51 µM,18.7 µM,24.5 µM,71.7 µM,6.72 µM,24.6 µM,41.2 µM,> 100 µM
CS(=O)(=O)OCCN(CCOS(C)(=O)=O)c1ccc(C=Nc2ccc3oc(=O)ccc3c2)cc1,–,31.8 µM,–,1.89 µM,–,92.1 µM,–,2.96 µM,–,62.5 µM,–,41.9 µM,–,49.9 µM,–,26.1 µM,–,> 100 µM,–,41 µM
O=C(O)c1ccc(S(=O)(=O)N=Nc2c(O)[nH]c3ccccc23)cc1,–,> 100 µM,–,> 100 µM,–,> 100 µM,–,> 100 µM,–,> 100 µM,–,> 100 µM,–,> 100 µM,–,> 100 µM,–,> 100 µM,–,> 100 µM
CC(F)(F)c1cc(F)ccc1-c1sc2cc(O)ccc2c1Oc1ccc(/C=C/C(=O)O)cc1,6.68 µM,94.4 µM,2.89 µM,14.5 µM,4890 nM,32.8 µM,12.9 µM,31.5 µM,6.66 µM,40.1 µM,6.45 µM,23 µM,12.2 µM,69.1 µM,3.52 µM,19.8 µM,6.7 µM,79.2 µM,12.1 µM,33.2 µM
COc1ccc(NC(=O)c2sc3nc(C)c(C(O)c4ccc(OC)cc4)cc3c2N)cc1 (stereo not drawn),1.44 µM,> 50 µM,0.411 µM,2.99 µM,821 nM,4.09 µM,2.85 µM,> 50 µM,1.28 µM,4.41 µM,1.43 µM,> 50 µM,1.79 µM,> 50 µM,0.815 µM,17.3 µM,0.509 µM,> 50 µM,5.12 µM,> 50 µM
COc1cccc(Cn2cc3c(c2)-c2oncc2CC3)c1,0.253 µM,–,0.368 µM,–,249 nM,0.886 µM,0.671 µM,43.7 µM,0.317 µM,–,0.386 µM,35.8 µM,0.622 µM,> 69.3 µM,0.211 µM,0.895 µM,0.315 µM,> 100 µM,1.3 µM,> 85.4 µM
CCOC(=O)CNC(=O)CCCn1c(=O)c2c3ccccc3n(C)c2n2nnc(-c3ccccc3)c12,26.5 µM,> 50 µM,1.33 µM,4.41 µM,4510 nM,> 50 µM,47.8 µM,> 50 µM,> 50 µM,> 50 µM,4.14 µM,14.6 µM,25.2 µM,> 50 µM,1.12 µM,3.59 µM,4.73 µM,> 50 µM,> 50 µM,> 50 µM
O=C(c1ccco1)c1c(C(F)(F)F)nc2cc(C(F)(F)F)ccc2[n+]1[O-],15.6 µM,44.3 µM,20.3 µM,80 µM,26700 nM,74.9 µM,66.9 µM,> 100 µM,67.2 µM,> 100 µM,34.7 µM,> 100 µM,31.8 µM,> 100 µM,16.6 µM,42.7 µM,38.3 µM,> 100 µM,> 100 µM,> 100 µM
O=C(NCCCNC(=O)OCc1ccc2c(Br)cc(Br)c(O)c2n1)OCc1ccc2c(Br)cc(Br)c(O)c2n1,> 100 µM,> 100 µM,> 100 µM,> 100 µM,> 100000 nM,> 100 µM,> 100 µM,> 100 µM,> 100 µM,> 100 µM,> 100 µM,> 100 µM,> 100 µM,> 100 µM,> 100 µM,> 100 µM,> 100 µM,> 100 µM,> 100 µM,> 100 µM
O=C(Nc1cccc(C(F)(F)F)c1)c1cccc(NC2=C(Cl)C(=O)N(Cc3ccccc3)C2=O)c1,1.87 µM,51.6 µM,2.39 µM,9.29 µM,43800 nM,> 100 µM,11.7 µM,> 100 µM,18.1 µM,53.5 µM,6.17 µM,> 100 µM,15.7 µM,66.1 µM,57.3 µM,> 100 µM,3.02 µM,17.6 µM,52.2 µM,> 100 µM
O=C1/C(=C/c2ccc([N+](=O)[O-])s2)Oc2ccccc21,0.282 µM,0.874 µM,1.1 µM,2.85 µM,882 nM,> 48.6 µM,0.323 µM,2.13 µM,1.74 µM,9.25 µM,0.561 µM,1.82 µM,0.297 µM,1.68 µM,1.03 µM,5.98 µM,0.243 µM,0.728 µM,0.538 µM,2.8 µM
CCOC(=O)N1C/C(=C/c2ccc(OC)cc2)C(=O)/C(=C/c2ccc(OC)cc2)C1,2.85 µM,> 100 µM,1.56 µM,3.09 µM,2850 nM,> 100 µM,1.9 µM,5.19 µM,3.35 µM,> 100 µM,1.74 µM,3.54 µM,3.49 µM,14.6 µM,2.93 µM,31.1 µM,1.72 µM,> 100 µM,2.77 µM,> 31 µM
CS(=O)c1ccc(-c2nc(-c3ccc(F)cc3)c(-c3ccncc3)[nH]2)cc1 (stereo not drawn),27.3 µM,> 100 µM,15.7 µM,39.3 µM,33300 nM,> 100 µM,20.1 µM,> 79.6 µM,> 100 µM,> 100 µM,38 µM,> 100 µM,29.6 µM,> 100 µM,> 44.6 µM,> 100 µM,25 µM,> 100 µM,39.7 µM,> 100 µM
CC[C@@H](C)[C@H]([C@H](CC(=O)N1CCC[C@@H]1[C@@H](OC)[C@H](C)C(=O)N[C@H](Cc1ccccc1)c1nccs1)OC)N(C)C(=O)[C@H](NC(=O)[C@@H](C(C)C)N(C)C)C(C)C,0.000257 µM and 0.000425 µM,–,0.0179 µM,–,0.0695 nM,4.06 µM,–,–,0.000317 µM,< 0.215 µM,–,0.00143 µM,0.000425 µM,–,0.000425 µM,–,0.000425 µM,2.86 µM and > 4.64 µM,1.2 µM and 0.588 µM,–
C=C1CC2(OC1=O)c1ccccc1C=Cc1ccccc12,–,6.58 µM,–,8.12 µM,–,6.29 µM,–,15.7 µM,–,3.06 µM,–,15.5 µM,–,11.7 µM,–,20.2 µM,–,10.7 µM,–,11.7 µM
O=[N+]([O-])c1cc(Cl)cc2c1nc(NCCO)c1ccccc12,–,> 100 µM,–,19.3 µM,–,> 100 µM,–,> 100 µM,–,> 100 µM,–,> 100 µM,–,> 100 µM,–,> 81.7 µM,–,> 94 µM,–,> 100 µM
BrC(Br)(Br)c1cnc2ccccc2n1,0.49 µM,2.42 µM,1.06 µM,2.4 µM,2470 nM,7 µM,0.793 µM,2.39 µM,2.3 µM,7.36 µM,1.3 µM,3.17 µM,1.76 µM,4.07 µM,2.94 µM,13.2 µM,1.12 µM,3.55 µM,1.46 µM,3.98 µM
CC(=O)NCCCCCCNC(C)=O,–,> 10000 µM,–,> 10000 µM,–,> 10000 µM,–,> 10000 µM,–,> 10000 µM,–,> 10000 µM,–,> 10000 µM,–,8830 µM,–,> 10000 µM,–,> 9590 µM
Oc1ccc(Br)cc1/C=N/NC(=S)NC12CC3CC(CC(C3)C1)C2,0.897 µM,8.14 µM,1.52 µM,3.36 µM,1990 nM,6.69 µM,1.33 µM,2.78 µM,2.71 µM,7.89 µM,1.32 µM,2.71 µM,1.6 µM,4.4 µM,2.03 µM,7.15 µM,1.87 µM,5.3 µM,1.25 µM,4.09 µM
CCCCN(CCCC)CC(C)(C)C(O)c1ccc(OC)c2ccccc12 (stereo not drawn),5.13 µM,26.7 µM,1.5 µM,4.51 µM,4550 nM,27 µM,3.02 µM,17.4 µM,6.13 µM,23.8 µM,3.47 µM,13.4 µM,9.76 µM,28.8 µM,6.31 µM,30.3 µM,2.51 µM,13.6 µM,0.385 µM,23.5 µM
